The values below come from patent US9670147B2, “Antioxidant inflammation modulators: oleanolic acid derivatives with amino and other modifications at C-17” (REATA PHARMACEUTICALS, INC., priority 2008, dated 2017).

Data set [1] is described as follows: TP levels in mouse brain after feeding in diet, LC/MS. The format is in vivo. The note with it: CD-1 mice, 200 or 400 mg/kg diet for 3.5 days. As for the experimental part: FIG. 48. […] CD-1 mice were fed either 200 or 400 mg/kg diet of either TP-319 or TP-500 for 3.5 days, and TP levels in the brains of the mice were analyzed by LC/MS. The structures of TP-319 and TP-500 are shown herein.

Data set [2] concerns IFNγ-induced NO production in RAW264.7 macrophages. Nature of the data set: Suppression of IFNγ-induced NO production (Griess reagent). It counts as cell-based, mouse. The note with it: 2 h pre-treatment, then 20 ng/ml IFNγ for 24 hours. The gist of the method:
(§1)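 Mouse RAW264.7 macrophages pre-treated 2 h with compound (nM concentrations) or DMSO, then stimulated with 20 ng/ml recombinant mouse IFNγ for 24 h. Nitrite in medium measured by Griess reagent; viability by WST-1.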

Another data set relates to RAW264.7 macrophages. As to the kind of experiment: Cell viability, WST-1 reagent. The note with it: 2 h pre-treatment, then 20 ng/ml IFNγ for 24 hours. The format is cell-based, mouse. In a few lines: as §1
(In general: Tetrazolium assays rely on reduction of a dye to a coloured formazan, in cell work by metabolically active cells.)

Data set [3] has as its system iNOS. As to the kind of experiment: Suppression of iNOS mRNA induction, qPCR. It counts as cell-based, mouse. The settings on record: RAW264.7; 2 h pre-treatment, 10 ng/ml IFNγ for 2 hours. Here is the method: FIG. 35. Suppression of iNOS mRNA induction. RAW264.7 mouse macrophages were pre-treated for 2 hours with compounds at the indicated concentrations and subsequently stimulated with 10 ng/ml IFNγ for an additional 2 hours. mRNA levels of iNOS were quantified by qPCR and are shown relative to the vehicle-treated IFNγ-stimulated sample which was normalized to a value of 1. Values are averages of duplicate PCR reactions, each with triplicate wells.
FIG. 36. Suppression of iNOS mRNA induction. RAW264.7 mouse macrophages were pre-treated for 2 hours with compounds at the indicated concentrations and subsequently stimulated with 10 ng/ml IFNγ for an additional 2 hours. mRNA levels of iNOS were quantified by qPCR and are shown relative to the vehicle-treated IFNγ-stimulated sample which was normalized to a value of 1. Values are averages of duplicate PCR reactions, each with triplicate wells.
FIG. 37. Suppression of iNOS mRNA induction. RAW264.7 mouse macrophages were pre-treated for 2 hours with compounds at the indicated concentrations and subsequently stimulated with 10 ng/ml IFNγ for an additional 2 hours. mRNA levels of iNOS were quantified by qPCR and are shown relative to the vehicle-treated IFNγ-stimulated sample which was normalized to a value of 1. Values are averages of duplicate PCR reactions, each with triplicate wells.
RAW264.7 mouse macrophage cells were pre-treated for 2 hours with compounds at the indicated concentrations and subsequently stimulated with 10 ng/ml IFNγ for an additional 2 hours. mRNA levels of iNOS were quantified by qPCR and are shown relative to the vehicle-treated IFNγ-stimulated sample which was normalized to a value of 1. Values are averages of duplicate PCR reactions, each with triplicate wells.

Data set [4] has as its system iNOS. Nature of the data set: iNOS Western blot in RAW264.7 mouse macrophages. It counts as cell-based. The note with it: compounds at 300 nM for 2 hours, 24 hour induction by IFNγ, read-out: iNOS suppr. WB. Here is the method: FIGS. 38-40. iNOS Western Blot in RAW264.7 mouse macrophages. Cells were pretreated by compounds at 300 nM for 2 hours, followed by 24 hour induction by IFNγ (20 ng/ml). […]
In general terms: A western blot detects proteins with antibodies after separation by electrophoresis.

Another data set deals with HO-1. As to the kind of experiment: Nrf2 target gene induction in MDA-MB-435 cells, qPCR: HO-1. It counts as cell-based, human. As for the experimental part:
FIG. 43. Induction of HO-1. FIGS. 43A and 43B: MDA-MB-435 human melanoma cells were treated with vehicle (DMSO) or the indicated compounds and concentrations for 16 hours. HO-1 mRNA levels were quantified using qPCR and were normalized relative to a DMSO-treated sample run in parallel. Values are averages of duplicate wells. FIG. 43C: MDA-MB-435 cells were treated with vehicle (DMSO) or the indicated compounds at 400 nM for 16 hours. HO-1, TrxR1 and actin protein levels were assayed by immunoblotting. Actin served as a loading control.
(§2) FIGS. 44, 46 and 47—Induction of HO-1, TrxR1 and γ-GCS. FIGS. 44A-C, 46A-C, 47A-C: MDA-MB-435 human melanoma cells were treated with vehicle (DMSO) or the indicated compounds (400 nM) for 16 hours. HO-1, thioredoxin reductase-1 (TrxR1), and γ-glutamylcysteine synthetase (γ-GCS) mRNA levels were quantified using qPCR and were normalized relative to a DMSO-treated sample run in parallel. Values are averages of duplicate wells. FIGS. 44D, 46D, 47D: MDA-MB-435 cells were treated with vehicle (DMSO) or the indicated compounds at 400 nM for 16 hours. HO-1, TrxR1 and actin protein levels were assayed by immunoblotting.
(§3) FIG. 45. Induction of HO-1, TrxR1 and γ-GCS. FIGS. 45 A-C: MDA-MB-435 cells were treated with vehicle (DMSO) or the indicated compounds at 160 nM for 16 hours. HO-1, TrxR1, and γ-GCS mRNA levels were quantified by qPCR and were normalized relative to a DMSO-treated sample run in parallel. Values are averages of duplicate wells. FIGS. 44D, 46D, 47D: MDA-MB-435 cells were treated with vehicle (DMSO) or the indicated compounds at 160 nM for 16 hours. HO-1, TrxR1 and actin protein levels were assayed by immunoblotting.
(§4) MDA-MB-435 human melanoma cells were treated with vehicle (DMSO) or the indicated compounds and concentrations for 16 hours. HO-1, thioredoxin reductase-1 (TrxR1), γ-glutamylcysteine synthetase (γ-GCS), and ferritin heavy chain mRNA levels were quantified using qPCR and were normalized relative to a DMSO-treated sample run in parallel. Values are averages of duplicate wells. Primer sequences are as follows.
For orientation: Quantitative PCR measures a nucleic acid by following its amplification.

Another data set has as its system TrxR1. As to the kind of experiment: Nrf2 target gene induction in MDA-MB-435 cells, qPCR: TrxR1. It counts as cell-based, human. The settings on record: 16 hours. Here is the method:
as §2, §3, §4

Another data set concerns γ-GCS. As to the kind of experiment: Nrf2 target gene induction in MDA-MB-435 cells, qPCR: γ-GCS. The format is cell-based, human. As for the experimental part:
as §2, §3, §4

Another data set concerns NQO1. As to the kind of experiment: Nrf2 target gene induction in MDA-MB-435 cells: NQO1. The format is cell-based, human. The settings on record: 250 nM.

As to `CC1(C)CC[C@]2(C(=O)NCC(F)(F)F)CC[C@]3(C)[C@H](C(=O)C=C4[C@@]5(C)C=C(C#N)C(=O)C(C)(C)[C@@H]5CC[C@]43C)[C@@H]2C1` [CDDO-TFEA], the “TP levels in the brains of the mice” value in data set [1] is reported as “Higher Levels in Mouse Brain than CDDO-EA”.
A word on the IC50: it is the midpoint of a concentration-inhibition curve. `CCS(=O)(=O)N[C@]12CCC(C)(C)C[C@H]1[C@H]1C(=O)C=C3[C@@]4(C)C=C(C#N)C(=O)C(C)(C)[C@@H]4CC[C@@]3(C)[C@]1(C)CC2` [Compound 63193, N-((4aS,6aR,6bS,8aR,12aS,14aR,14bS)-11-cyano-2,2,6a,6b,9,9,12a-heptamethyl-10,14-dioxo-1,2,3,4,4a,5,6,6a,6b,7,8,8a,9,10,12a,14,14a,14b-octadecahydropicen-4a-yl)ethanesulfonamide]: the IC50 in data set [2] (Mus musculus) is 1.5 nM; in the data set on RAW264.7 macrophages (Mus musculus) it was over 200 nM. Besides, the “iNOS suppr. qPCR” value in the data set on iNOS [3] is recorded as about 65%. In addition, the inhibition at 0.3 µM with iNOS [4] is over 90%. Further, in the data set on HO-1 (160 nM, 16 hours), the HO-1 induction is 6% of induction observed for RTA 402. Further, the TrxR1 induction in the data set on TrxR1 (160 nM) is 86% of induction observed for RTA 402. In addition, the γ-GCS induction in the data set with γ-GCS (160 nM, 16 hours) is given as 55% of induction observed for RTA 402.
Take `CC1(C)CC[C@]2(N)CC[C@]3(C)[C@H](C(=O)C[C@@H]4[C@@]5(C)C=C(C#N)C(=O)C(C)(C)[C@@H]5CC[C@]43C)[C@@H]2C1` [Compound 63198, (4aR,6aR,6bR,8aS,12aS,12bR,14aR,14bR)-8a-amino-4,4,6a,6b,11,11,14b-heptamethyl-3,13-dioxo-3,4,4a,5,6,6a,6b,7,8,8a,9,10,11,12,12a,12b,13,14,14a,14b-icosahydropicene-2-carbonitrile]: the figures for the IC50 (in data set [2] (Mus musculus); in the data set on RAW264.7 macrophages (Mus musculus)) were about 30 nM and over 200 nM, respectively. The HO-1 induction with HO-1 (250 nM) is given as 1.4 fold induction above DMSO control; in the data set on HO-1 (400 nM, 16 hours) it was 2% of induction observed for RTA 402. In the data set with TrxR1 (400 nM), the TrxR1 induction is reported as 71% of induction observed for RTA 402. In the data set with γ-GCS (250 nM), the γ-GCS induction is listed as 2.8 fold induction above DMSO control. Also, the NQO1 induction with NQO1 is recorded as 1.8 fold induction above DMSO control.
As for `CC1(C)CC[C@]2(O)CC[C@]3(C)[C@H](C(=O)CC4[C@@]5(C)C=C(C#N)C(=O)C(C)(C)[C@@H]5CC[C@]43C)[C@@H]2C1` (stereo partly drawn) [Compound 63208, (4aR,6aR,6bR,8aS,12aS,12bR,14bR)-8a-hydroxy-4,4,6a,6b,11,11,14b-heptamethyl-3,13-dioxo-3,4,4a,5,6,6a,6b,7,8,8a,9,10,11,12,12a,12b,13,14,14a,14b-icosahydropicene-2-carbonitrile], the HO-1 induction in the data set with HO-1 (250 nM) is listed as 1.1 fold induction above DMSO control. For the same compound, in the data set on γ-GCS (250 nM), the γ-GCS induction was 3.2 fold induction above DMSO control. Further, in the data set on NQO1, the NQO1 induction is listed as 1.7 fold induction above DMSO control.
For `CC1(C)CC[C@]2(NS(C)(=O)=O)CC[C@]3(C)[C@H](C(=O)C[C@@H]4[C@@]5(C)C=C(C#N)C(=O)C(C)(C)[C@@H]5CC[C@]43C)[C@@H]2C1` [Compound 63215, N-((4aS,6aR,6bR,8aR,12aR,12bR,14aR,14bS)-11-cyano-2,2,6a,6b,9,9,12a-heptamethyl-10,14-dioxo-1,2,3,4,4a,5,6,6a,6b,7,8,8a,9,10,12a,12b,13,14,14a,14b-icosahydropicen-4a-yl)methanesulfonamide], the IC50 in data set [2] (Mus musculus) was about 15 nM; in the data set on RAW264.7 macrophages (Mus musculus), over 200 nM. In addition, the HO-1 induction was 1.7 fold induction above DMSO control in the data set with HO-1 (250 nM) and 1% of induction observed for RTA 402 in the data set on HO-1 (400 nM, 16 hours). The TrxR1 induction in the data set on TrxR1 (400 nM) was 36% of induction observed for RTA 402. For the same compound, the γ-GCS induction with γ-GCS (250 nM) was 3.8 fold induction above DMSO control; in the data set with γ-GCS (400 nM, 16 hours), 21% of induction observed for RTA 402. The NQO1 induction in the data set on NQO1 is recorded as 1.7 fold induction above DMSO control.
For `CC1(C)CC[C@]2(NS(=O)(=O)C3CC3)CC[C@]3(C)[C@H](C(=O)C=C4[C@@]5(C)C=C(C#N)C(=O)C(C)(C)[C@@H]5CC[C@]43C)[C@@H]2C1` [Compound 63243, N-((4aS,6aR,6bS,8aR,12aS,14aR,14bS)-11-cyano-2,2,6a,6b,9,9,12a-heptamethyl-10,14-dioxo-1,2,3,4,4a,5,6,6a,6b,7,8,8a,9,10,12a,14,14a,14b-octadecahydropicen-4a-yl)cyclopropanesulfonamide], the IC50 amounted to 2.9 nM in data set [2] (Mus musculus) and 150 nM with RAW264.7 macrophages (Mus musculus). Moreover, the “iNOS suppr. qPCR” value in the data set on iNOS [3] worked out at 50%. Moreover, in the data set with iNOS [4], the inhibition at 0.3 µM was about 90%. For the same compound, the HO-1 induction in the data set on HO-1 (160 nM, 16 hours) is given as 25% of induction observed for RTA 402. For the same compound, the TrxR1 induction with TrxR1 (160 nM) was 57% of induction observed for RTA 402. The γ-GCS induction in the data set with γ-GCS (160 nM, 16 hours) is 36% of induction observed for RTA 402.
Consider “N-((4aS,6aR,6bR,8aR,12aR,12bR,14aR,14bS)-11-cyano-2,2,6a,6b,9,9,12a-heptamethyl-10,14-dioxo-1,2,3,4,4a,5,6,6a,6b,7,8,8a,9,10,12a,12b,13,14,14a,14b-icosahydropicen-4a-yl)-2,2,2-trifluoroethanesulfonamide [Compound 63254]”, for which the results for the IC50 (in data set [2]; in the data set with RAW264.7 macrophages) were about 25 nM and over 200 nM, respectively. The HO-1 induction with HO-1 (250 nM) is recorded as 2 fold induction above DMSO control. Besides, the γ-GCS induction with γ-GCS (250 nM) is given as 3 fold induction above DMSO control. In the data set on NQO1, the NQO1 induction was 1.7 fold induction above DMSO control.
